A word on the IC50: it is the concentration that gives 50% inhibition.

The structures appear in SMILES notation.

For this test, the target named is T1, human TLR8 (Homo sapiens, UniProt Q9NR97).
T1 sequence (Q9NR97 27-1041): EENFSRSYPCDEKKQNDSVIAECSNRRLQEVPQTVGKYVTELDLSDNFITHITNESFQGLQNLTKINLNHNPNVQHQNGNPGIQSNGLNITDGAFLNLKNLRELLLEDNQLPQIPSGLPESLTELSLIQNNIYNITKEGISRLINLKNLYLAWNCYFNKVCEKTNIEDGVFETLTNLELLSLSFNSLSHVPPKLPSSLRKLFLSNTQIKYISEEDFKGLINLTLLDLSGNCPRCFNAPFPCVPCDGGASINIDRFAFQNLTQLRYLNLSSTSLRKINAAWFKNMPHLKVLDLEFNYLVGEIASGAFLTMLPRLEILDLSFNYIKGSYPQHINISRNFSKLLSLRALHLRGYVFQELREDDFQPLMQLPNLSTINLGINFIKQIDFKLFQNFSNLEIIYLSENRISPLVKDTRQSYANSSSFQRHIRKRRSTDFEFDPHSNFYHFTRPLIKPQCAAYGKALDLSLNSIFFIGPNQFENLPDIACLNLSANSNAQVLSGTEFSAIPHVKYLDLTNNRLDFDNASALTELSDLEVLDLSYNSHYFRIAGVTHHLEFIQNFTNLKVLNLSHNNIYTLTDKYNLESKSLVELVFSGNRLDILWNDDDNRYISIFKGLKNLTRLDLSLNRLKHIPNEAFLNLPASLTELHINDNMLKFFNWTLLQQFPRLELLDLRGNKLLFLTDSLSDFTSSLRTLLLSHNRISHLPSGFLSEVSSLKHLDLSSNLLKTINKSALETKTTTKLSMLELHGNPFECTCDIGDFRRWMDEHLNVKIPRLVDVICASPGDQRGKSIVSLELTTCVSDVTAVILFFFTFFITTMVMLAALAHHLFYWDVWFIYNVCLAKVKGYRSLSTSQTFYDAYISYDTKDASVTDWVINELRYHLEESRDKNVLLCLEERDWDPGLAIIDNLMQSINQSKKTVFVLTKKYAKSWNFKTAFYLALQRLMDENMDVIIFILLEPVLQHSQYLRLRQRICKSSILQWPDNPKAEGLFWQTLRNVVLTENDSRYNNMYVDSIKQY
The test is described as follows: HEK293-Blue-hTLR-8 cells assay (SEAP reporter, R848 stimulation). In kind it is cell-based. Conditions: HEK293-Blue-hTLR8 cells, R848 ligand, 20 hrs incubation. How it is done: The following tests were carried out in order to determine the activity of the compounds of formula (I) in HEK293-Blue-hTLR-7/8/9 cells assay.
HEK293-Blue-hTLR-8 Cells Assay:
A stable HEK293-Blue-hTLR-8 cell line was purchased from InvivoGen (Cat. #: hkb-htlr8, San Diego, Calif., USA). These cells were originally designed for studying the stimulation of human TLR8 by monitoring the activation of NF-κB. A SEAP (secreted embryonic alkaline phosphatase) reporter gene was placed under the control of the IFN-β minimal promoter fused to five NF-κB and AP-1-binding sites. The SEAP was induced by activating NF-κB and AP-1 via stimulating HEK-Blue hTLR8 cells with TLR8 ligands. Therefore the reporter expression was declined by TLR8 antagonist under the stimulation of a ligand, such as R848, for incubation of 20 hrs. The cell culture supernatant SEAP reporter activity was determined using QUANTI-Blue™ kit (Cat. #: rep-qb1, Invivogen, San Diego, Ca, USA) at a wavelength of 640 nm, a detection medium that turns purple or blue in the presence of alkaline phosphatase.
HEK293-Blue-hTLR8 cells were incubated at a density of 250,000˜450,000 cells/mL in a volume of 170 μL in a 96-well plate in Dulbecco's Modified Eagle's medium (DMEM) containing 4.5 g/L glucose, 50 U/mL penicillin, […], […], 2 mM L-glutamine, 10% (v/v) heat-inactivated fetal bovine serum with addition of 20 μL test compound in a serial dilution in the presence of final DMSO at 1% and 10 μL of 60 uM R848 in above DMEM, perform incubation under 37° C. in a CO2 incubator for 20 hrs. Then 20 μL of the supernatant from each well was incubated with 180 μL Quanti-blue substrate solution at 37° C. for 2 hrs and the absorbance was read at 620-655 nm using a spectrophotometer. The signalling pathway that TLR8 activation leads to downstream NF-κB activation has been widely accepted, and therefore similar reporter assay was modified for evaluating TLR8 antagonist.
`N#Cc1ccc(N2C[C@H](CN3C4CCC3CC(N)C4)[C@@H](C(F)(F)F)C2)c2nccnc12` (stereo partly drawn) [Example 63, 8-[(3S,4R)-3-[(3-amino-8-azabicyclo[3.2.1]octan-8-yl)methyl]-4-(trifluoromethyl)pyrrolidin-1-yl]quinoxaline-5-carbonitrile] gave a half-inhibitory concentration (IC50) of 25 nM.
For `N#Cc1ccc(N2C[C@H](CN3CCC(N4CCNCC4)CC3)[C@@H](C(F)(F)F)C2)c2cccnc12` [Example 52, 5-[(3S,4R)-3-[(4-piperazin-1-yl-1-piperidyl)methyl]-4-(trifluoromethyl)pyrrolidin-1-yl]quinoline-8-carbonitrile], the half-inhibitory concentration (IC50) worked out at 88 nM.
`N#Cc1ccc(N2C[C@H](CN3CCC(CCN)CC3)[C@@H](C(F)(F)F)C2)c2nccnc12` [Example 79, 8-[(3S,4R)-3-[[4-(2-aminoethyl)-1-piperidyl]methyl]-4-(trifluoromethyl)pyrrolidin-1-yl]quinoxaline-5-carbonitrile] gave a 50% inhibitory concentration (IC50) of 102 nM.
Compound `CC1(N)CCN(C[C@H]2CN(c3ccc(C#N)c4nccnc34)C[C@@H]2C(F)(F)F)CC1` [Example 12, 8-[(3S,4R)-3-[(4-amino-4-methyl-1-piperidyl)methyl]-4-(trifluoromethyl)pyrrolidin-1-yl]quinoxaline-5-carbonitrile] showed a half-maximal inhibitory concentration (IC50) of 31 nM.
On to `N#Cc1ccc(N2CC(CN3CCC(N4CCCCC4)CC3)C3(CC3)C2)c2nccnc12` (stereo not drawn) [Example 11, 8-[7-[[4-(1-Piperidyl)-1-piperidyl]methyl]-5-azaspiro[2.4]heptan-5-yl]quinoxaline-5-carbonitrile], for which the IC50 came to 24 nM.
The compound `N#Cc1ccc(N2C[C@H](CN3CCC4(CCNCC4)CC3)[C@@H](C(F)(F)F)C2)c2cccnc12` [Example 2, 5-[(3S,4R)-3-(3,9-diazaspiro[5.5]undecan-3-ylmethyl)-4-(trifluoromethyl)pyrrolidin-1-yl]quinoline-8-carbonitrile] registered an IC50 of 57 nM. This IC50 lies about 2.4-fold higher than the previous one.
To `N#Cc1ccc(N2C[C@H](CN3CCC4(CCCNC4)C3)[C@@H](C(F)(F)F)C2)c2cccnc12` (stereo partly drawn) [Example 6, 5-[(3S,7R)-3-(2,9-diazaspiro[4.5]decan-2-ylmethyl)-4-(trifluoromethyl)pyrrolidin-1-yl]quinoline-8-carbonitrile] belongs 39 nM; to `N#Cc1ccc(N2C[C@@H](CN3CCC4(CCNCC4)CC3)[C@H](C(F)F)C2)c2cccnc12` (relative stereo) [Example 27, 5-[Trans-3-(3,9-diazaspiro[5.5]undecan-3-ylmethyl)-4-(difluoromethyl)pyrrolidin-1-yl]quinoline-8-carbonitrile], 454 nM.
`CC(C)[C@@H]1CN(c2ccc(C#N)c3ncccc23)C[C@H]1CN1CCC2(CCNC2)C1` (relative stereo) [Example 44, 5-[Trans-3-(2,7-diazaspiro[4.4]nonan-2-ylmethyl)-4-isopropyl-pyrrolidin-1-yl]quinoline-8-carbonitrile] displayed an IC50 of 533 nM.
As to `C[C@@H]1CN(c2ccc(C(F)(F)F)c3nccnc23)C[C@H]1CN1CCC(N2CCCCC2)CC1` (relative stereo) [Example 33, 5-[Trans-3-methyl-4-[[4-(1-piperidyl)-1-piperidyl]methyl]pyrrolidin-1-yl]-8-(trifluoromethyl)quinoxaline], 245 nM corresponded to half-maximal inhibition (IC50). This IC50 is about 2.2-fold lower than that of the compound before.
`N#Cc1ccc(N2CC(CN3CC4CCNCC43)C3(CC3)C2)c2nccnc12` (stereo not drawn) [Example 50, 8-[7-(3,8-Diazabicyclo[4.2.0]octan-8-ylmethyl)-5-azaspiro[2.4]heptan-5-yl]quinoxaline-5-carbonitrile]: the half-inhibitory concentration (IC50) is 38 nM.
Regarding `N#Cc1ccc(N2C[C@H](CNC3CCNCC3)[C@@H](C(F)(F)F)C2)c2nccnc12` [Example 71, 8-[(3S,4R)-3-[(4-piperidylamino)methyl]-4-(trifluoromethyl)pyrrolidin-1-yl]quinoxaline-5-carbonitrile], the IC50 is 94 nM.
On to `N#Cc1ccc(N2CC(CNC3CCCNCC3)C3(CC3)C2)c2nccnc12` (stereo not drawn) [Example 39, 8-[7-[(Azepan-4-ylamino)methyl]-5-azaspiro[2.4]heptan-5-yl]quinoxaline-5-carbonitrile], for which the IC50 was determined as 132 nM. The IC50 values of the last two compounds are within 1.5-fold of each other.
As to `N#Cc1ccc(N2C[C@H](CN3CCC(N4CCCCC4)CC3)[C@@H](C(F)(F)F)C2)c2cccnc12` [Example 10, 5-[(3S,4R)-3-[[4-(1-piperidyl)-1-piperidyl]methyl]-4-(trifluoromethyl)pyrrolidin-1-yl]quinoline-8-carbonitrile], it took 52 nM to reach half-maximal inhibition (IC50).
With `N#Cc1ccc(N2C[C@H](CN3CCC4(CCCNC4)CC3)[C@@H](C(F)(F)F)C2)c2nccnc12` [Example 45, 8-[(3S,4R)-3-(2,9-diazaspiro[5.5]undecan-9-ylmethyl)-4-(trifluoromethyl)pyrrolidin-1-yl]quinoxaline-5-carbonitrile], it took 32 nM to reach half-maximal inhibition (IC50).
`N#Cc1ccc(N2CC(CN3CCC4(CCCNC4)C3)C3(CC3)C2)c2nccnc12` (stereo not drawn) [Example 22, 8-[7-(2,9-Diazaspiro[4.5]decan-2-ylmethyl)-5-azaspiro[2.4]heptan-5-yl]quinoxaline-5-carbonitrile] displayed an IC50 of 79 nM.
On to `C[C@@H]1CN(c2ccc(C(F)(F)F)c3nccnc23)C[C@H]1CNC1CCCNCC1` (stereo partly drawn) [Example 40], for which the concentration for half-maximal inhibition (IC50) worked out at 742 nM.
In the case of `CC1(N)CCN(CC2CN(c3ccc(C#N)c4nccnc34)CC23CC3)CC1` (stereo not drawn) [Example 7, 8-[7-[(4-Amino-4-methyl-1-piperidyl)methyl]-5-azaspiro[2.4]heptan-5-yl]quinoxaline-5-carbonitrile], inhibition was half-maximal at 43 nM (IC50).
For the compound `N#Cc1ccc(N2CC(CN3CCC4(CCNC4)C3)C3(CC3)C2)c2cccnc12` (stereo not drawn) [Example 43, 5-[7-(2,7-Diazaspiro[4.4]nonan-2-ylmethyl)-5-azaspiro[2.4]heptan-5-yl]quinoline-8-carbonitrile], the half-maximal inhibitory concentration (IC50) was determined as 718 nM.
On to `C[C@H]1CN(c2ccc(C#N)c3ncccc23)C[C@@H]1CN1CCC2(CCNC2)C1` (stereo partly drawn) [Example 35, 5-[(3S,4R)-3-(2,7-diazaspiro[4.4]nonan-2-ylmethyl)-4-methyl-pyrrolidin-1-yl]quinoline-8-carbonitrile], for which the IC50 worked out at 245 nM. This IC50 is about 2.9-fold lower than that of the compound before.
In turn, `N#Cc1ccc(N2C[C@H](CN3CCCC(C(N)=O)C3)[C@@H](C(F)(F)F)C2)c2nccnc12` (stereo partly drawn) [Example 69, 1-[[(3S,4R)-1-(S-cyanoquinoxalin-5-yl)-4-(trifluoromethyl)pyrrolidin-3-yl]methyl]piperidine-3-carboxamide] displayed a half-maximal inhibitory concentration (IC50) of 729 nM.
Turning to `N#Cc1ccc(N2C[C@H](CN3CCC4(CC3)CNCCO4)[C@@H](C(F)(F)F)C2)c2nccnc12` [Example 70, 8-[(3S,4R)-3-(1-oxa-4,9-diazaspiro[5.5]undecan-9-ylmethyl)-4-(trifluoromethyl)pyrrolidin-1-yl]quinoxaline-5-carbonitrile], the IC50 was found to be 20 nM.
As for `N#Cc1ccc(N2CC(CN3CCC(N)CC3)C3(CC3)C2)c2nccnc12` (single isomer, unassigned) [Example 68A, 8-[7-[(4-Amino-1-piperidyl)methyl]-5-azaspiro[2.4]heptan-5-yl]quinoxaline-5-carbonitrile], the IC50 was found to be 60 nM.
Regarding `N#Cc1ccc(N2C[C@H](CN3CCC(N4CCCCCC4)CC3)[C@@H](C(F)(F)F)C2)c2nccnc12` [Example 62, 8-[(3S,4R)-3-[[4-(Azepan-1-yl)-1-piperidyl]methyl]-4-(trifluoromethyl)pyrrolidin-1-yl]quinoxaline-5-carbonitrile], the half-maximal inhibitory concentration (IC50) came out at 28 nM.
